# Biological target: xanthine oxidase (Homo sapiens, UniProt P47989)
# Test: Xanthine oxidase (XOD) inhibition, uric acid production read at OD290 nm
# Type: biochemical
# Settings: read-out: Inhibition rate (%)
# Procedure: Xanthine oxidase catalyzes a xanthine substrate to produce uric acid and superoxide anion, and uric acid has a characteristic absorption peak under 290 nm UV conditions. By measuring the change curve of absorbance value within a certain time, the slope of this curve is the production rate of the uric acid, to measure the change of the activity of xanthine oxidase, so as to judge the uric acid lowering ability of the sample.
# 92.4 μL of xanthine oxidase mother solution (5 U/770 μL) is drawn in a centrifuge tube, and diluted with 11.9076 mL of PBS to obtain 0.05 U/mL xanthine oxidase working solution which shall be prepared for immediate use.
# 0.02284 g of xanthine is weighed in a beaker; 1.2 mL of 1 mol/L NaOH solution is added; ultrasonic treatment is conducted for 20 min; and the volume is fixed to 100 mL with the PBS to obtain 1.5 mmol/L xanthine working solution.
# Eucommia ulmoides Oliv. leaf extract solutions: 0.50 g of corresponding Eucommia ulmoides Oliv. leaf extract sample in embodiment 5 is weighed; the volume is fixed to 50 mL with the PBS; the solution is thoroughly mixed well to prepare 10.0 mg/mL mother solution; and the mother solution is diluted with the PBS to different multiples to obtain different concentrations of Eucommia ulmoides Oliv. solutions.
# 2.1 A proper quantity of centrifugal tubes are taken and numbered as OD1, OD2, OD3 and OD4 respectively. Reagents are added to each tube according to the combinations of Table 1.
# The concentrations are plotted in horizontal coordinates and the inhibition rates are plotted in vertical coordinates to calculate the concentration IC50 with half inhibition rate.
# Chain of xanthine oxidase (P47989 whole entry, species assumed): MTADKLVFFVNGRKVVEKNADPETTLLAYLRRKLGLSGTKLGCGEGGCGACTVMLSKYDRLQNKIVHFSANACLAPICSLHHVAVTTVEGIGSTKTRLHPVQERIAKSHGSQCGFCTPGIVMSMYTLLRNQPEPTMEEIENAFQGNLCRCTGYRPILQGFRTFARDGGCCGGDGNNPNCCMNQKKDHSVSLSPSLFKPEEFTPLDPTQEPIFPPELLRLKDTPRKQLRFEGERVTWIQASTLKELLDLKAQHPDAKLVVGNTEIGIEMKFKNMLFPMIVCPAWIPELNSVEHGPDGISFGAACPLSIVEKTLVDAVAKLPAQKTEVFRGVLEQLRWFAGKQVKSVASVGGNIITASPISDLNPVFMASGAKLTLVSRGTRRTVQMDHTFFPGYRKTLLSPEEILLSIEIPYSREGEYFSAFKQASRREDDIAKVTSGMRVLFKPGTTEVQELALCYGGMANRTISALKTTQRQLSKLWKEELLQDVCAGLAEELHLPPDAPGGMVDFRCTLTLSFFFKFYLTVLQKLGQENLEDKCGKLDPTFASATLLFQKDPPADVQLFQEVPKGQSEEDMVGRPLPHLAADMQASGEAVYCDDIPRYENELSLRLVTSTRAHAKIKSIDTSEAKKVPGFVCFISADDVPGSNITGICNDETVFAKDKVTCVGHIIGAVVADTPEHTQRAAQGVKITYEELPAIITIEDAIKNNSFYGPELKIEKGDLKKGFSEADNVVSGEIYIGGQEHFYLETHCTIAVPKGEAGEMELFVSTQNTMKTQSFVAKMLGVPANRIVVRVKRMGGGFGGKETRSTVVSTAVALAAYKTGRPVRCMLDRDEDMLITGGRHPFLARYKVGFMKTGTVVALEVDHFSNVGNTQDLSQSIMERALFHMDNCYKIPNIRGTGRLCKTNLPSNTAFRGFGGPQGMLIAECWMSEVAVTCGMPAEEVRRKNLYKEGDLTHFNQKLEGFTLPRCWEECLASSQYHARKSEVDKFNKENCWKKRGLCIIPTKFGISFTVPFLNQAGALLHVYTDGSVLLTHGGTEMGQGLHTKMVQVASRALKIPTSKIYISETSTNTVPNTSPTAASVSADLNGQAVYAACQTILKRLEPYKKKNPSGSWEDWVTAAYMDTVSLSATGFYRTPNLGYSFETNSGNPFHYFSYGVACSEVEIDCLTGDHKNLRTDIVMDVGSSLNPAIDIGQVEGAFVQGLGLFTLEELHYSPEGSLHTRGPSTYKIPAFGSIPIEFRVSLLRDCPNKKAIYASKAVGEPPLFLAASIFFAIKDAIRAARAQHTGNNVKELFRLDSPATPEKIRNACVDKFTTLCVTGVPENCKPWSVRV
smiles,measurement,setting,value
"Oc1ncnc2[nH]ncc12 [Allopurinol, allopurinol]",inhibition at 0.05 µg/mL,0.05 μg/ml,34.1%
same,inhibition at 1 µg/mL,1 μg/ml,44.9%
same,inhibition at 5 µg/mL,5 μg/ml,59.4%
same,inhibition at 10 µg/mL,10 μg/ml,74%
same,inhibition at 15 µg/mL,15 μg/ml,81.2%
same,inhibition at 20 µg/mL,20 μg/ml,87.2%
same,inhibition at 25 µg/mL,25 μg/ml,93.3%

# From patent US20240100116A1, “EUCOMMIA ULMOIDES OLIV. LEAF EXTRACT CAPABLE OF PROTECTING HEALTH OF KIDNEY FUNCTION, AND PREPARATION AND DETECTION METHODS THEREOF” (Chenland Nutritionals Inc., priority 2023, published 2024)
